{"source": "patent US20100316728A1", "about": "“Therapeutic mask and Method of Treatment Employing the Same” (priority 2009, published 2010)", "type_in_all_cases": "in vivo, human", "key": {"patients [1]": {"system": "patients", "experiment": "Numbness felt by patients using the mask (with Lidocaine)", "settings": "per patient", "description": "A separate and distinct benefit has been discovered through the use of the instant invention. […] This aids the speed in which the process can be performed on a patient."}, "patients [2]": {"system": "patients", "experiment": "Pain level felt by patients using the mask (with Lidocaine)"}, "patients [3]": {"system": "patients", "experiment": "Patient questionnaire on mask application, removal and skin reactions (dryness, burning, redness, itching, stinging)", "settings": "per patient, yes/no"}, "[4]": {"settings": "Table IX, CO2 procedure, unmasked side"}, "[5]": {"settings": "Table X, CO2 procedure, unmasked side"}, "[6]": {"settings": "Table XI, unmasked side, 0-10 scale"}, "[7]": {"settings": "Pain Rate section, Results with Lidocaine, right side = side without mask, per patient"}, "[8]": {"settings": "Results with Lidocaine, left side, mask on one side only, one value per patient, 10 = highest pain"}, "[9]": {"settings": "Results with Lidocaine, right side, mask on one side only, one value per patient, 10 = highest pain"}, "[10]": {"settings": "Table IX, CO2 procedure, unmasked side, per patient"}, "[11]": {"settings": "Table VIII Pain Data, unmasked side, per patient"}, "[12]": {"settings": "Table X, CO2 procedure, unmasked side, per patient"}, "[13]": {"settings": "Table XII, unmasked side, 0-10 scale, per patient"}}, "note": "Several values for one entry are separate records, joined by “and”; a condition that tells them apart may be missing. Equal values may be shown once.", "data": [{"smiles": "CCN(CC)CC(=O)Nc1c(C)cccc1C", "note": "[Lidocaine]", "values": [{"measurement": "Numbness Cheeks- (Left Side)", "setting": "patients [1]; 1-10 scale, cheeks, left side", "result": "4 and 8 and 9 and 3"}, {"measurement": "Numbness Cheeks- (Right Side)", "setting": "patients [1]; 1-10 scale, cheeks, right side", "result": "7 (3×) and 3 and 5 and 4 and 6"}, {"measurement": "Numbness- Chin (Left Side)", "setting": "patients [1]; 1-10 scale, chin, left side", "result": "4 and 8 and 9 and 7"}, {"measurement": "Numbness- Chin (Right Side)", "setting": "patients [1]; 1-10 scale, chin, right side", "result": "3 and 4 (2×) and 5 and 7 (2×) and 6"}, {"measurement": "Numbness- Forehead (Left Side)", "setting": "patients [1]; 1-10 scale, forehead, left side", "result": "4 and 8 and 9 and 2"}, {"measurement": "Numbness- Forehead (Right Side)", "setting": "patients [1]; 1-10 scale, forehead, right side", "result": "4 (2×) and 3 and 6 (2×) and 7 and 8"}, {"measurement": "Numbness- Mouth (Left Side)", "setting": "patients [1]; 1-10 scale, mouth, left side", "result": "4 and 8 and 9 and 5"}, {"measurement": "Numbness- Mouth (Right Side)", "setting": "patients [1]; 1-10 scale, mouth, right side", "result": "5 and 3 and 6 (2×) and 7 and 4 and 8"}, {"measurement": "Numbness Cheeks- (Unmasked Side)", "setting": "patients [1]; [4]", "result": "8 (3×) and 6 (4×)"}, {"measurement": "Numbness- Chin (Unmasked Side)", "setting": "patients [1]; [4]", "result": "9 and 6 (4×) and 8 (2×)"}, {"measurement": "Numbness- Forehead (Unmasked Side)", "setting": "patients [1]; [4]", "result": "9 and 6 (4×) and 8 (2×)"}, {"measurement": "Numbness- Mouth (Unmasked Side)", "setting": "patients [1]; [4]", "result": "8 (3×) and 6 (4×)"}, {"measurement": "Numbness Cheeks- (Unmasked Side)", "setting": "patients [1]; [5]", "result": "8 (3×) and 6 (4×)"}, {"measurement": "Numbness- Chin (Unmasked Side)", "setting": "patients [1]; [5]", "result": "9 and 6 (4×) and 8 (2×)"}, {"measurement": "Numbness- Forehead (Unmasked Side)", "setting": "patients [1]; [5]", "result": "9 and 6 (4×) and 8 (2×)"}, {"measurement": "Numbness- Mouth (Unmasked Side)", "setting": "patients [1]; [5]", "result": "8 (3×) and 6 (4×)"}, {"measurement": "Numbness Average Unmasked Side", "setting": "patients [1]; Table XI summary, 0-10 scale", "result": "8.5 and 6 (4×) and 8 (2×)"}, {"measurement": "Average", "setting": "patients [1]; Table XI, average numbness, unmasked side, 0-10 scale", "result": "8.5 and 6 (4×) and 8 (2×)"}, {"measurement": "Numbness Cheeks- (Unmasked Side)", "setting": "patients [1]; [6]", "result": "8 (3×) and 6 (4×)"}, {"measurement": "Numbness- Chin (Unmasked Side)", "setting": "patients [1]; [6]", "result": "9 and 6 (4×) and 8 (2×)"}, {"measurement": "Numbness- Forehead (Unmasked Side)", "setting": "patients [1]; [6]", "result": "9 and 6 (4×) and 8 (2×)"}, {"measurement": "Numbness- Mouth (Unmasked Side)", "setting": "patients [1]; [6]", "result": "8 (3×) and 6 (4×)"}, {"measurement": "Pain After proc. Cheeks (Left Side)", "setting": "patients [2]; 1-10 scale, 1 least pain, 10 highest, after Fraxel or CO2 procedure, cheeks, left side", "result": "10 and 6 and 5"}, {"measurement": "Pain After proc. Chin (Left Side)", "setting": "patients [2]; 1-10 scale, 1 least pain, 10 highest, after Fraxel or CO2 procedure, chin, left side", "result": "10 and 6 and 5"}, {"measurement": "Pain After proc. Forehead (Left Side)", "setting": "patients [2]; 1-10 scale, 1 least pain, 10 highest, after Fraxel or CO2 procedure, forehead, left side", "result": "10 and 6"}, {"measurement": "Average Right Side", "setting": "patients [2]; Pain Rate section, Results with Lidocaine, average pain, right side = side without mask, per patient", "result": "8.00 and 5.00 and 9.00 and 2.00"}, {"measurement": "Pain After proc. Cheeks (Right Side)", "setting": "patients [2]; [7]", "result": "8 and 5 and 9 and 2"}, {"measurement": "Pain After proc. Chin (Right Side)", "setting": "patients [2]; [7]", "result": "8 and 5 and 9 and 2"}, {"measurement": "Pain After proc. Forehead (Right Side)", "setting": "patients [2]; [7]", "result": "8 and 5 and 9 and 2"}, {"measurement": "Pain After proc. Mouth (Right Side)", "setting": "patients [2]; [7]", "result": "8 and 5 and 9 and 2"}, {"measurement": "Average Left Side", "setting": "patients [2]; Results with Lidocaine, average pain of mouth, cheeks, forehead, chin, left side, per patient", "result": "10.00 and 6.00 and 5.00"}, {"measurement": "Average Right Side", "setting": "patients [2]; Results with Lidocaine, average pain of mouth, cheeks, forehead, chin, right side, per patient", "result": "4.00 and 8.25 and 9.25 and 9.00 and 4.50 and 10.00"}, {"measurement": "Pain After proc. Cheeks (Left Side)", "setting": "patients [2]; [8]", "result": "10 and 6 and 5"}, {"measurement": "Pain After proc. Chin (Left Side)", "setting": "patients [2]; [8]", "result": "10 and 6 and 5"}, {"measurement": "Pain After proc. Forehead (Left Side)", "setting": "patients [2]; [8]", "result": "10 and 6 (2×)"}, {"measurement": "Pain After proc. Mouth (Left Side)", "setting": "patients [2]; [8]", "result": "10 and 6 and 4"}, {"measurement": "Pain After proc. Cheeks (Right Side)", "setting": "patients [2]; [9]", "result": "4 and 7 and 8 and 9 (2×) and 10"}, {"measurement": "Pain After proc. Chin (Right Side)", "setting": "patients [2]; [9]", "result": "4 and 6 (2×) and 8 and 9 and 10"}, {"measurement": "Pain After proc. Forehead (Right Side)", "setting": "patients [2]; [9]", "result": "4 (2×) and 10 (2×) and 8 and 9"}, {"measurement": "Pain After proc. Mouth (Right Side)", "setting": "patients [2]; [9]", "result": "4 (2×) and 10 (2×) and 8 and 9"}, {"measurement": "Pain After proc. Cheeks (Unmasked Side)", "setting": "patients [2]; [10]", "result": "8 (3×) and 9 and 2 and 5 and 6"}, {"measurement": "Pain After proc. Chin (Unmasked Side)", "setting": "patients [2]; [10]", "result": "8 (3×) and 9 and 2 and 5 and 6"}, {"measurement": "Pain After proc. Forehead (Unmasked Side)", "setting": "patients [2]; [10]", "result": "8 (3×) and 9 and 2 and 5 and 7"}, {"measurement": "Pain After proc. Mouth (Unmasked Side)", "setting": "patients [2]; [10]", "result": "8 (3×) and 9 and 2 and 5 and 6"}, {"measurement": "Average Pain (Unmasked Side)", "setting": "patients [2]; [11]", "result": "8 (3×) and 9 and 2 and 5 and 6.3"}, {"measurement": "Pain After proc. Cheeks (Unmasked Side)", "setting": "patients [2]; [11]", "result": "8 (3×) and 9 and 2 and 5 and 6"}, {"measurement": "Pain After proc. Chin (Unmasked Side)", "setting": "patients [2]; [11]", "result": "8 (3×) and 9 and 2 and 5 and 6"}, {"measurement": "Pain After proc. Forehead (Unmasked Side)", "setting": "patients [2]; [11]", "result": "8 (3×) and 9 and 2 and 5 and 7"}, {"measurement": "Pain After proc. Mouth (Unmasked Side)", "setting": "patients [2]; [11]", "result": "8 (3×) and 9 and 2 and 5 and 6"}, {"measurement": "Pain After proc. Cheeks (Unmasked Side)", "setting": "patients [2]; [12]", "result": "8 (3×) and 9 and 2 and 5 and 6"}, {"measurement": "Pain After proc. Chin (Unmasked Side)", "setting": "patients [2]; [12]", "result": "8 (3×) and 9 and 2 and 5 and 6"}, {"measurement": "Pain After proc. Forehead (Unmasked Side)", "setting": "patients [2]; [12]", "result": "8 (3×) and 9 and 2 and 5 and 7"}, {"measurement": "Pain After proc. Mouth (Unmasked Side)", "setting": "patients [2]; [12]", "result": "8 (3×) and 9 and 2 and 5 and 6"}, {"measurement": "Average Pain (Unmasked Side)", "setting": "patients [2]; Table XII summary, 0-10 scale, per patient", "result": "8 (3×) and 9 and 2 and 5 and 6.3"}, {"measurement": "Average Pain (Unmasked Side)", "setting": "patients [2]; [13]", "result": "8 (3×) and 9 and 2 and 5 and 6.3"}, {"measurement": "Pain After proc. Cheeks (Unmasked Side)", "setting": "patients [2]; [13]", "result": "8 (3×) and 9 and 2 and 5 and 6"}, {"measurement": "Pain After proc. Chin (Unmasked Side)", "setting": "patients [2]; [13]", "result": "8 (3×) and 9 and 2 and 5 and 6"}, {"measurement": "Pain After proc. Forehead (Unmasked Side)", "setting": "patients [2]; [13]", "result": "8 (3×) and 9 and 2 and 5 and 7"}, {"measurement": "Pain After proc. Mouth (Unmasked Side)", "setting": "patients [2]; [13]", "result": "8 (3×) and 9 and 2 and 5 and 6"}, {"measurement": "Dryness Right side", "setting": "patients [3]", "result": "no"}, {"measurement": "Burning Right", "setting": "patients [3]; right side", "result": "no (2×) and yes"}, {"measurement": "Itching Right", "setting": "patients [3]; right side", "result": "no"}, {"measurement": "Redness Right", "setting": "patients [3]; right side", "result": "yes (2×) and no"}, {"measurement": "Stinging Right", "setting": "patients [3]; right side", "result": "yes (2×) and no"}]}]}
